Results taken from ChEMBL document CHEMBL6177982, “Structural Optimization of Pyrazole Compounds as Hsp90 Regulators with Enhanced Antitumor Activity” (J Med Chem, 2025).
Activity calls are given as the source filed them. No cut-off for these calls is given here.

Tests used:
[1] = Selectivity ratio of IC50 for antiproliferative activity against CDC37 knockout human HCT-116 cells to IC50 for antiproliferative activity against human HCT-116 cells; format: functional
[2] = Stability of compound in simulated gastric fluid at 100 uM incubated for 12 hrs; format: physicochemical; details: simulated gi fluid
[3] = Metabolic stability in human liver microsomes assessed as terminal elimination half-life at 1 uM preincubated for 5 mins followed by NADPH addition and measured up to 120 mins by LC-MS/MS analysis; format: ADME, Microsome; details: time < 125 min, read-out: LambdaZ (converted)
[4] = Metabolic stability in rat liver microsomes assessed as clearance at 1 uM preincubated for 5 mins followed by NADPH addition and measured up to 120 mins by LC-MS/MS analysis; format: ADME, Microsome; details: time < 125 min, read-out: CLH
[5] = Metabolic stability in human liver microsomes assessed as clearance at 1 uM preincubated for 5 mins followed by NADPH addition and measured up to 120 mins by LC-MS/MS analysis; format: ADME, Microsome; details: time < 125 min, read-out: CLH
[6] = Half-life in male Sprague-Dawley rat at 1 mg/kg, iv by LC-MS/MS analysis; format: ADME, organism-based; details: in vivo
[7] = AUC (0 to infinity) in male Sprague-Dawley rat at 1 mg/kg, iv by LC-MS/MS analysis; format: ADME, organism-based; details: in vivo
[8] = Clearance in male Sprague-Dawley rat at 1 mg/kg, iv by LC-MS/MS analysis; format: ADME, organism-based; details: in vivo
[9] = Tmax in male Sprague-Dawley rat at 5 mg/kg, ip by LC-MS/MS analysis; format: ADME, organism-based; details: in vivo
[10] = Half-life in male Sprague-Dawley rat at 5 mg/kg, ip by LC-MS/MS analysis; format: ADME, organism-based; details: in vivo
[11] = Cmax in male Sprague-Dawley rat at 5 mg/kg, ip by LC-MS/MS analysis; format: ADME, organism-based; details: in vivo
[12] = AUC (0 to infinity) in male Sprague-Dawley rat at 5 mg/kg, ip by LC-MS/MS analysis; format: ADME, organism-based; details: in vivo
[13] = Apparent volume of distribution in male Sprague-Dawley rat at 5 mg/kg, ip by LC-MS/MS analysis; format: ADME, organism-based; details: in vivo
[14] = Clearance in male Sprague-Dawley rat at 5 mg/kg, ip by LC-MS/MS analysis; format: ADME, organism-based; details: in vivo
[15] = Tmax in male Sprague-Dawley rat at 10 mg/kg, IG by LC-MS/MS analysis; format: ADME, organism-based; details: in vivo, po
[16] = Half-life in male Sprague-Dawley rat at 10 mg/kg, IG by LC-MS/MS analysis; format: ADME, organism-based; details: in vivo, po
[17] = Cmax in male Sprague-Dawley rat at 10 mg/kg, IG by LC-MS/MS analysis; format: ADME, organism-based; details: in vivo, po
[18] = Apparent volume of distribution in male Sprague-Dawley rat at 10 mg/kg, IG by LC-MS/MS analysis; format: ADME, organism-based; details: in vivo, po
[19] = biological target: T1, Heat shock protein HSP90 (Homo sapiens) (UniProt P07900+P08238); experiment: Covalent binding affinity to wildtype His-tagged C-terminal HSP90 (unknown origin) assessed as two phase melting curve at 100 uM incubated for 4 hrs by SYPRO fluorescent dye based thermal shift assay; format: protein assay
[20] = biological target: T2, Heat shock protein HSP 90-alpha (Homo sapiens, UniProt P07900); experiment: Binding affinity to HSP90alpha (unknown origin) assessed as dissociation constant by ITC analysis
[21] = biological target: T2, Heat shock protein HSP 90-alpha; experiment: Binding affinity to His-tagged HSP90alpha (unknown origin) assessed as dissociation constant by SPR analysis
[22] = biological target: T1, Heat shock protein HSP90 (Homo sapiens); experiment: Induction of thermal stabilization of HSP90 in human HCT-116 cells at 10 uM at 53 to 55 degreeC by CETSA based Western blot analysis; format: cell-based
[23] = biological target: T2, Heat shock protein HSP 90-alpha; experiment: Covalent binding affinity to recombinant full-length HSP90alpha (unknown origin) at C598 residue assessed as appearance of compound-modified peptide incubated for 12 hrs by LC-MS/MS analysis
[24] = system: HCT-116; experiment: Induction of AKT degradation in human HCT-116 cells incubated for 24 hrs by Western blot analysis; format: cell-based; details: dose 0.1-5 µM
[25] = system: HCT-116; experiment: Induction of CDK4 degradation in human HCT-116 cells incubated for 24 hrs by Western blot analysis; format: cell-based; details: dose 0.1-5 µM
[26] = system: HCT-116; experiment: Upregulation of HSP90 level in human HCT-116 cells at 0.1 to 5 uM incubated for 24 hrs by Western blot analysis; format: functional, cell-based; details: dose 0.1-5 µM
[27] = system: HCT-116; experiment: Inhibition of Myc-tagged HSP90 C598A mutant (unknown origin)/CDC37 (unknown origin) protein-protein interaction transfected in human HCT-116 cells at 0.5 to 5 uM incubated for 12 hrs by co-immunoprecipitation analysis; format: cell-based; details: dose 0.5-5 µM
[28] = system: HT-1080; experiment: Antiproliferative activity against human HT-1080 cells assessed as inhibition of cell proliferation incubated for 72 hrs by MTT assay; format: functional, cell-based; details: HT-1080, 72 h
[29] = system: HCT-116; experiment: Antiproliferative activity against human HCT-116 cells assessed as inhibition of cell proliferation incubated for 24 hrs by MTT assay; format: functional, cell-based; details: HCT-116, 24 h
[30] = system: HCT-116; experiment: Antiproliferative activity against human HCT-116 cells assessed as inhibition of cell proliferation incubated for 48 hrs by MTT assay; format: functional, cell-based; details: HCT-116, 48 h
[31] = system: Mus musculus; experiment: Upregulation of HSP90 protein level in female Balb/c mouse tumor xenografted with human HCT-116 cells at 5 to 30 mg/kg, ip administered every two days for 14 days by Western blot analysis; format: functional, organism-based; details: dose 5-30 mg/kg, time 14.0 day
[32] = system: Mus musculus; experiment: Upregulation of HSP70 protein level in female Balb/c mouse tumor xenografted with human HCT-116 cells at 5 to 30 mg/kg, ip administered every two days for 14 days by Western blot analysis; format: functional, organism-based; details: dose 5-30 mg/kg, time 14.0 day
[33] = Toxicity in female Balb/c nude mouse xenografted with human HCT-116 cells assessed as effect on heart weight at 5 to 30 mg/kg, ip administered every two days for 14 days; format: organism-based; details: in vivo, 336 h, dose 5-30 mg/kg, time 14 day
[34] = Toxicity in female Balb/c nude mouse xenografted with human HCT-116 cells assessed as effect on liver weight at 5 to 30 mg/kg, ip administered every two days for 14 days; format: organism-based; details: in vivo, 336 h, dose 5-30 mg/kg, time 14 day
[35] = Toxicity in female Balb/c nude mouse xenografted with human HCT-116 cells assessed as effect on kidney weight at 5 to 30 mg/kg, ip administered every two days for 14 days; format: organism-based; details: in vivo, 336 h, dose 5-30 mg/kg, time 14 day
[36] = Toxicity in female Balb/c nude mouse xenografted with human HCT-116 cells assessed as pathological changes in heart at 5 to 30 mg/kg, ip administered every two days for 14 days by H and E staining based analysis; format: organism-based; details: in vivo, 336 h, dose 5-30 mg/kg, time 14 day
[37] = Toxicity in female Balb/c nude mouse xenografted with human HCT-116 cells assessed as pathological changes in liver at 5 to 30 mg/kg, ip administered every two days for 14 days by H and E staining based analysis; format: organism-based; details: in vivo, 336 h, dose 5-30 mg/kg, time 14 day
[38] = Toxicity in female Balb/c nude mouse xenografted with human HCT-116 cells assessed as pathological changes in spleen at 5 to 30 mg/kg, ip administered every two days for 14 days by H and E staining based analysis; format: organism-based; details: in vivo, 336 h, dose 5-30 mg/kg, time 14 day
[39] = Toxicity in female Balb/c nude mouse xenografted with human HCT-116 cells assessed as pathological changes in lung at 5 to 30 mg/kg, ip administered every two days for 14 days by H and E staining based analysis; format: organism-based; details: in vivo, 336 h, dose 5-30 mg/kg, time 14 day

Compound: O=S(=O)(/C=C/c1cn(-c2ccccc2)nc1-c1cccnc1)c1ccccc1
- Ratio IC50 [1]: >50
- Stability [2]: Stable
- half-life at 1 µM [3]: 53.4 min
- microsomal CLint at 1 µM [4]: 55 µL/min/mg
- microsomal CLint at 1 µM [5]: 26 µL/min/mg
- half-life [6]: 50.4 min
- AUC(0-inf) [7]: 1460 ng·h/mL
- clearance [8]: 11.8 mL/min/kg
- Tmax [9]: 8.4 min
- half-life [10]: 82.2 min
- Cmax [11]: 8350 ng/mL
- AUC(0-inf) [12]: 6770 ng·h/mL
- Vz [13]: 0.97 L/kg
- CL/F [14]: 12.2 mL/min/kg
- Tmax [15]: 52.8 min
- half-life [16]: 121 min
- Cmax [17]: 2400 ng/mL
- Vz [18]: 3.18 L/kg
- Activity [19]: Active
- Kd [20]: 3.96 µM
- Kd [21]: 1370 nM
- Activity [22]: Active
- Activity [23]: Active
- Activity [24]: Dose-dependent-effect
- Activity [25]: Dose-dependent-effect
- Activity [26]: inactive
- inhibition [27]: inactive
- IC50 [28]: 2710 nM
- IC50 [29]: 6.36 µM
- IC50 [30]: 4.18 µM
- Activity [31]: inactive
- Activity [32]: inactive
- Activity [33]: Non-toxic
- Activity [34]: Non-toxic
- Activity [35]: Non-toxic
- Activity [36]: Non-toxic
- Activity [37]: Non-toxic
- Activity [38]: Non-toxic
- Activity [39]: Non-toxic
